Experimental data from patent publication US20110039721A1, “METHOD FOR PREDICTION ABOUT CARCINOGENICITY OF SUBSTANCE IN RODENT” (Chemicals Evaluation and Research Institute, priority 2007, published 2011).

Legend:
liver = settings: classification of the substance (Cr+/Cr−); cited from earlier work
rodent = settings: classification of the substance (C+/C−); cited from earlier work
[1] = classification of the substance (M+/M−); cited from earlier work
[2] = test system: mRNA expressed from the genes (A) to (D) in rat liver; assay: Behavior of genes (mRNA expression level, oligo-DNA microarray) in rat liver after 28-day oral administration; assay type: in vivo; settings: mRNA vs vehicle control group
Summary of the method: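 Liver mRNA measured by oligo-DNA microarray after 28 days of once-daily oral gavage in 5-week-old male F344 rats (n=4 per group), with vehicle controls given equal solvent volume. Significance threshold: 1.5-fold up or down versus control, with changes opposite in direction to other carcinogens counted as not significant.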

[3] = gene group (A), Unigene No. Rn.167075
[4] = gene group (C), Unigene No. Rn.120914

CCN(N=O)C(N)=O [TS050, N-Ethyl-N-nitrosourea]
M+: Mutagenicity by Ames test [1]
C+: Carcinogenicity (rodent)
+: Behavior of gene caused by administration of chemical substance, Gene No. 6182 ([2]; gene group (A), Unigene No. Rn.5834) | Behavior of gene caused by administration of chemical substance, Gene No. 6303 ([2]; gene group (C), Unigene No. Rn.123063) | Behavior of gene caused by administration of chemical substance, Gene No. 5726 ([2]; gene group (D), Unigene No. Rn.9939)
Cr−: Liver carcinogenicity (liver)
−: Behavior of gene caused by administration of chemical substance, Gene No. 4846 ([2]; gene group (A), Unigene No. Rn.144554) | Behavior of gene caused by administration of chemical substance, Gene No. 2026 [2, 3] | Behavior of gene caused by administration of chemical substance, Gene No. 4218 [2, 3] | Behavior of gene caused by administration of chemical substance, Gene No. 5600 ([2]; gene group (A), Unigene No. Rn.9836) | Behavior of gene caused by administration of chemical substance, Gene No. 1494 ([2]; gene group (B), Unigene No. Rn.1430) | Behavior of gene caused by administration of chemical substance, Gene No. 2045 ([2]; gene group (B), Unigene No. Rn.19329) | Behavior of gene caused by administration of chemical substance, Gene No. 2203 ([2]; gene group (B), Unigene No. Rn.21240) | Behavior of gene caused by administration of chemical substance, Gene No. 533 ([2]; gene group (C), Unigene No. Rn.106184) | Behavior of gene caused by administration of chemical substance, Gene No. 725 ([2]; gene group (C), Unigene No. Rn.108075) | Behavior of gene caused by administration of chemical substance, Gene No. 1163 ([2]; gene group (C), Unigene No. Rn.11766) | Behavior of gene caused by administration of chemical substance, Gene No. 4973 ([2]; gene group (C), Unigene No. Rn.118529) | Behavior of gene caused by administration of chemical substance, Gene No. 4095 ([2]; gene group (C), Unigene No. Rn.119024) | Behavior of gene caused by administration of chemical substance, Gene No. 1334 [2, 4] | Behavior of gene caused by administration of chemical substance, Gene No. 6620 [2, 4] | Behavior of gene caused by administration of chemical substance, Gene No. 5878 ([2]; gene group (C), Unigene No. Rn.143213) | Behavior of gene caused by administration of chemical substance, Gene No. 1131 ([2]; gene group (C), Unigene No. Rn.144946) | Behavior of gene caused by administration of chemical substance, Gene No. 1562 ([2]; gene group (C), Unigene No. Rn.14744) | Behavior of gene caused by administration of chemical substance, Gene No. 1741 ([2]; gene group (C), Unigene No. Rn.1647) | Behavior of gene caused by administration of chemical substance, Gene No. 893 ([2]; gene group (C), Unigene No. Rn.164817) | Behavior of gene caused by administration of chemical substance, Gene No. 6026 ([2]; gene group (C), Unigene No. Rn.167685) | Behavior of gene caused by administration of chemical substance, Gene No. 154 ([2]; gene group (C), Unigene No. Rn.185941) | Behavior of gene caused by administration of chemical substance, Gene No. 1993 ([2]; gene group (C), Unigene No. Rn.18728) | Behavior of gene caused by administration of chemical substance, Gene No. 813 ([2]; gene group (C), Unigene No. Rn.201760) | Behavior of gene caused by administration of chemical substance, Gene No. 2494 ([2]; gene group (C), Unigene No. Rn.23969) | Behavior of gene caused by administration of chemical substance, Gene No. 2546 ([2]; gene group (C), Unigene No. Rn.24561) | Behavior of gene caused by administration of chemical substance, Gene No. 3776 ([2]; gene group (C), Unigene No. Rn.43232) | Behavior of gene caused by administration of chemical substance, Gene No. 3929 ([2]; gene group (C), Unigene No. Rn.4620) | Behavior of gene caused by administration of chemical substance, Gene No. 1119 ([2]; gene group (C), Unigene No. Rn.9757) | Behavior of gene caused by administration of chemical substance, Gene No. 6742 ([2]; gene group (C), Unigene No. Rn.9779) | Behavior of gene caused by administration of chemical substance, Gene No. 5634 ([2]; gene group (C), Unigene No. Rn.9862)
